Source: US10894793B2, “Bicyclic pyridine, pyrazine, and pyrimidine derivatives as PI3K beta inhibitors” (Janssen Pharmaceutica NV, priority 2016, dated 2021)

Legend:
[1] = system: Akt phosphorylated at Thr308 in PC-3 cells; assay: Cellular assay: phosphorylation of Akt (Thr308) in PC-3 cells, MSD ELISA; format: cell-based; conditions: Homo sapiens, PC-3, 1 h, 60 min compound incubation, read-out: IC50 pAkt_Thr308
Method: (§1) Cellular activity of PI3Kβ inhibitors was determined by quantifying the phosphorylation of Akt in PC-3 cells. Akt phosphorylated at Ser473 and Thr308 were measured using an enzyme-linked immunosorbent assay (ELISA; Meso Scale Discovery (MSD), Gaithersburg, Md.) and specific primary antibodies from MSD.
(§2) On day 1, PC3 cells (ATCC #[…]) were seeded into PerkinElmer MW96 plates at 25.000 cells per well, in 75 μl complete culture medium (DMEM high glucose, AQmedia™, D0819, Sigma-Aldrich) containing 10% heat inactivated FCS and incubated at 37° C., […] during 24 hours. On day 2, compound or DMSO (0.3%) was added and cells were further incubated for 60 min at 37° C., 5% CO2 in a total volume of 100 μl of medium.
(§3) The phosphoprotein assay was executed according to vendor instructions in the Phospho-Akt (Ser473) Assay Whole Cell Lysate Kit (MSD #K15100D-3) and the Phospho-Akt (Thr308) Assay Whole Cell Lysate Kit (MSD #K151DYD-3) using the lysis, blocking and wash buffer provided.
(§4) Briefly, at the end of the cell treatment period, media were removed by aspiration and adherent cells were lysed in 50 μl ice-cold lysis buffer. MSD plates are supplied pre-coated with capture antibodies for Phospho-Akt (Ser473 and Thr308). After blocking, lysates from tissue culture plates were added and plates were washed. Then, a solution containing the detection antibody (anti-total Akt conjugated with an electrochemiluminescent compound-MSD Sulfo-tag label) was added. The signals were detected using an MSD SECTOR Imager 6000 and are proportional to the phospho-Akt titres.
(§5) Data were processed. The percentage of inhibition was plotted against the log concentration of test compounds, and the sigmoidal log concentration-effect curve of best fit was calculated by nonlinear regression analysis. From these concentration-response curves, the IC50 values were calculated. Five concentrations were used for curve fitting.

PIK3Cβ_h = target: T1, PIK3Cβ_h (Homo sapiens, UniProt P42338); assay: Enzyme binding assay (KINOMEscan); conditions: DiscoveRx
T1 construct: purchased DiscoveRx Corporation
T1 sequence (P42338 whole entry): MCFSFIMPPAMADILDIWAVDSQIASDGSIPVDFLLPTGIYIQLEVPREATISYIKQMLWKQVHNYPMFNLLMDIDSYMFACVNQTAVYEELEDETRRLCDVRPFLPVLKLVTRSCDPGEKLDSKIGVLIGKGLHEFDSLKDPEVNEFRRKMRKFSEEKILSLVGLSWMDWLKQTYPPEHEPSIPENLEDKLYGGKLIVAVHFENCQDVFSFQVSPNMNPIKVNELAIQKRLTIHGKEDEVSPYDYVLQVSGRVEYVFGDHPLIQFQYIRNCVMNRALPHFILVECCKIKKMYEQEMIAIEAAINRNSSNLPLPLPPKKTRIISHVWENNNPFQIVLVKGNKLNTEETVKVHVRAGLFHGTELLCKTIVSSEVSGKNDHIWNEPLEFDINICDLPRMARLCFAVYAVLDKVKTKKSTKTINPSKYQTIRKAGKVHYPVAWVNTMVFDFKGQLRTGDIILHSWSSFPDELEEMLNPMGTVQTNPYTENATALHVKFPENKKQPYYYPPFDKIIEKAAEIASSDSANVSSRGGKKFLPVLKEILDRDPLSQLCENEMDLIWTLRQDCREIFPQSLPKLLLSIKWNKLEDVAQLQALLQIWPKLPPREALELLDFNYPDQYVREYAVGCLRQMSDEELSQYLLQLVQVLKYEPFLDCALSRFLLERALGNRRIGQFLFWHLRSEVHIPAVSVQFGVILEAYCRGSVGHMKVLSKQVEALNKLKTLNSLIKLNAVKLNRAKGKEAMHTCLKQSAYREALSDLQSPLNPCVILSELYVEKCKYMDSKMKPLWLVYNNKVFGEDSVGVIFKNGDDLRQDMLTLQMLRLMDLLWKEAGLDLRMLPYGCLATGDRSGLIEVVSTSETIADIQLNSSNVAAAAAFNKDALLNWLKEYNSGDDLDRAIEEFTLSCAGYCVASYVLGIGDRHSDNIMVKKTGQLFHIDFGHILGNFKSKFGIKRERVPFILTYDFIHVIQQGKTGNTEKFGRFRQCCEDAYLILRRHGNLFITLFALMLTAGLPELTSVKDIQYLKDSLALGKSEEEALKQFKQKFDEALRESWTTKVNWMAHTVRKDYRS
Method: (§6) Enzyme Binding Assays (KINOMEscan®)
(§7) Kinase enzyme binding affinities of compounds disclosed herein were determined using the KINOMEscan technology performed by DiscoveRx Corporation, San Diego, Calif., USA (www.kinomescan.com). Table A reports the obtained Kd values (nM), with the Kd being the inhibitor binding constant: […]

PIK3Cα_h = target: T2, PIK3Cα_h (Homo sapiens, UniProt P42336); assay: Enzyme binding assay (KINOMEscan); conditions: DiscoveRx
T2 construct: purchased DiscoveRx Corporation
T2 sequence (P42336 whole entry): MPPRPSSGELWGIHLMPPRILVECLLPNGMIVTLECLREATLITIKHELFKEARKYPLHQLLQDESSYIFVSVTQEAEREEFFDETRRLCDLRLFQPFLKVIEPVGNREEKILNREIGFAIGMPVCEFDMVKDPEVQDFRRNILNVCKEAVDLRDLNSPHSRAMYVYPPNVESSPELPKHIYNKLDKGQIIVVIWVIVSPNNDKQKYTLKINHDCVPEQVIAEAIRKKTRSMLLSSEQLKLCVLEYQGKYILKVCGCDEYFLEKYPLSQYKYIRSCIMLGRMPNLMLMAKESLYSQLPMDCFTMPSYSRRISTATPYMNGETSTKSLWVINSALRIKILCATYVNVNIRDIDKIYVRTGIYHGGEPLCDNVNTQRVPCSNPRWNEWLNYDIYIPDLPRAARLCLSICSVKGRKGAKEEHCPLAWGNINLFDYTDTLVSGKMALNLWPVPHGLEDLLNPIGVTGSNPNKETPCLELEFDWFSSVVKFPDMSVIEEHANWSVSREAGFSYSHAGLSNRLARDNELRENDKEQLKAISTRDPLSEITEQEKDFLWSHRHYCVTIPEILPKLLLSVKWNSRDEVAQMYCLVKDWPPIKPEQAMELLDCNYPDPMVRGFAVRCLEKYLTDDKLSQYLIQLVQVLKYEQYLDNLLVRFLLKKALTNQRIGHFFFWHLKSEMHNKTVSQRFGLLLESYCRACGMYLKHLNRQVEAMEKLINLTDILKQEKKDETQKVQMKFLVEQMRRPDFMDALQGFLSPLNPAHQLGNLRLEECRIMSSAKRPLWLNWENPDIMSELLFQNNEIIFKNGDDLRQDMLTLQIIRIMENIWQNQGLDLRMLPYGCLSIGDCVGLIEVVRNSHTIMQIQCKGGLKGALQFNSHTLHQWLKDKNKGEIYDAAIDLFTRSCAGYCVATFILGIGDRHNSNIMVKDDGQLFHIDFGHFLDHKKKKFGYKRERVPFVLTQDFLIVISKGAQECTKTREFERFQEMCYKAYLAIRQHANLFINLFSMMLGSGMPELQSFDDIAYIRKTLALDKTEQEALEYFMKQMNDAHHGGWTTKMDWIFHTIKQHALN
Method: as §6, §7

MTOR_h = target: T3, MTOR_h (Homo sapiens, UniProt P42345); assay: Enzyme binding assay (KINOMEscan); conditions: DiscoveRx
T3 construct: purchased DiscoveRx Corporation
Method: as §6, §7

PIK3Cγ_h = target: T4, PIK3Cγ_h (Homo sapiens, UniProt P48736); assay: Enzyme binding assay (KINOMEscan); conditions: DiscoveRx
T4 construct: purchased DiscoveRx Corporation
T4 sequence (P48736 whole entry): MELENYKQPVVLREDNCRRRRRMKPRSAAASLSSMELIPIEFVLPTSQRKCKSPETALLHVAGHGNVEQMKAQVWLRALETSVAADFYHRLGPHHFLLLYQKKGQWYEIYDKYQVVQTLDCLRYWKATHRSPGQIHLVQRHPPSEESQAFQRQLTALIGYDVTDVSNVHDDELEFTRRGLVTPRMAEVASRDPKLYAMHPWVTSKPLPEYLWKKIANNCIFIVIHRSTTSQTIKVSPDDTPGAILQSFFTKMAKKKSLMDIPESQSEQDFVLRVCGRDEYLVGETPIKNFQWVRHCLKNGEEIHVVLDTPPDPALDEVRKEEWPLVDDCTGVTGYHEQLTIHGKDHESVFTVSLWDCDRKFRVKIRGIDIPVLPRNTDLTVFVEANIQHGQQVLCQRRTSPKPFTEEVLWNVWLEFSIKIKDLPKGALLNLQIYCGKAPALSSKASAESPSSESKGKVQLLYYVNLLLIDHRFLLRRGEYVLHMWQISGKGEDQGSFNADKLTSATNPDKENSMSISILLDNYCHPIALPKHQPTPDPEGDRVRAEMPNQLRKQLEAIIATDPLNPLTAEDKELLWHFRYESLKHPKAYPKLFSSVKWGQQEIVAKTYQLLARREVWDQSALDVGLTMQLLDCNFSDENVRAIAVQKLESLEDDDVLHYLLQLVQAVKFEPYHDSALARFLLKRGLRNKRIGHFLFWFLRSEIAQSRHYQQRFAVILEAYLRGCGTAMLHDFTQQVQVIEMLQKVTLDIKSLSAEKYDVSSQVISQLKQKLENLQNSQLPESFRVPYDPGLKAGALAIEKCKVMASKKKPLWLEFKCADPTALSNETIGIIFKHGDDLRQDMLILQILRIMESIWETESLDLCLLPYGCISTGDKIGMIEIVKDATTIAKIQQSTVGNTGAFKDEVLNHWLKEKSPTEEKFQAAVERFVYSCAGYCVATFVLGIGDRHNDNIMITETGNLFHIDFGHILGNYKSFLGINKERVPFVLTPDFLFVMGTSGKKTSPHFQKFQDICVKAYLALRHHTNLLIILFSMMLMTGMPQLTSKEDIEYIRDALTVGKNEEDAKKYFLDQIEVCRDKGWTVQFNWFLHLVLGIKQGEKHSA
Method: as §6, §7

PIK3Cδ_h = target: T5, PIK3Cδ_h (Homo sapiens, UniProt O00329); assay: Enzyme binding assay (KINOMEscan); conditions: DiscoveRx
T5 construct: purchased DiscoveRx Corporation
T5 sequence (O00329 1-1044): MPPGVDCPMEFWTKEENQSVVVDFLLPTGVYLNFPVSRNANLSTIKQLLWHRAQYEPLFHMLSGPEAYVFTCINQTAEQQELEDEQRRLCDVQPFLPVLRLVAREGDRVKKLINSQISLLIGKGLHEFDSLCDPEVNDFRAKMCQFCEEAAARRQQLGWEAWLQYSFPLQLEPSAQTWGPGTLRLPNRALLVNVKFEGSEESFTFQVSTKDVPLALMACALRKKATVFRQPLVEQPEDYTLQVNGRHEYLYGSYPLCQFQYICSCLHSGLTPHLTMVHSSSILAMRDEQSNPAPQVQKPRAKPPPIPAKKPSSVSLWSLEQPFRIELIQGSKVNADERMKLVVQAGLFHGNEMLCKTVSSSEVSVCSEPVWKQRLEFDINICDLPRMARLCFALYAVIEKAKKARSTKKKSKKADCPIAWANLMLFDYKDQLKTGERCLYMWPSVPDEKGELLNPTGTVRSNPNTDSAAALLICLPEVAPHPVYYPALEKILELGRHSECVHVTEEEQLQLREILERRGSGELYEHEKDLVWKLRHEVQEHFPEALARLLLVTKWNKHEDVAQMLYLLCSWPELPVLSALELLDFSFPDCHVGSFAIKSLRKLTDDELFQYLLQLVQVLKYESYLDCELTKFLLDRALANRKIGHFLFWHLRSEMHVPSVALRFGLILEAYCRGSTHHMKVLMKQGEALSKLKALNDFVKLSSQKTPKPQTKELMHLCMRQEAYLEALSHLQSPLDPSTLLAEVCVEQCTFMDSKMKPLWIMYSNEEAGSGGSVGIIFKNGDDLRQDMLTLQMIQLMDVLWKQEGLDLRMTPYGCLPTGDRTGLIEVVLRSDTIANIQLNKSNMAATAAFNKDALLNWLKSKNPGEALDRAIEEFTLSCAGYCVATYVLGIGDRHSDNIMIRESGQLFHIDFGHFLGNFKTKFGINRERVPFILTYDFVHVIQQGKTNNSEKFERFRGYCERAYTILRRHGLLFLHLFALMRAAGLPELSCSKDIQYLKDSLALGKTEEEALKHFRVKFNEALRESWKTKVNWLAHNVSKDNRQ
Method: as §6, §7

[2] = system: Akt phosphorylated at Ser473 in PC-3 cells; assay: Cellular assay: phosphorylation of Akt (Ser473) in PC-3 cells, MSD ELISA; format: cell-based; conditions: Homo sapiens, PC-3, 1 h, 60 min compound incubation, read-out: IC50 pAkt_S473
Method: as §1, §2, §3, §4, §5

Row | SMILES | IC50 [1] [nM] | melting point [°C] | Kd (PIK3Cβ_h) [nM] | Kd (PIK3Cα_h) [µM] | Kd (MTOR_h) [µM] | Kd (PIK3Cγ_h) [µM] | Kd (PIK3Cδ_h) [nM] | IC50 [2] [nM]
1 | Cc1c(Cc2c(CO)nc3c(N)cc(C4=CCOCC4)cn23)cccc1C(F)(F)F [Compound 46] | 18 | 223 | 16 | 8.43 | 5.89 | 6.46 | 1060 | 32
2 | Cc1c(Cc2c(CN3CC4(C3)CS(=O)(=O)C4)nc3ncc(N4CCOCC4)cn23)cccc1C(F)(F)F [Compound 21] | 17 | 228 | 0.4 | 1.48 | > 30.2 | > 30.2 | 123 | 15
3 | Cc1nc2c(-c3ccn[nH]3)nc(C3=CCOCC3)cn2c1Cc1cccc(C(F)(F)F)c1C [Compound 1] | 7 | 240 | 1.6 | 0.288 | 0.935 | 1.06 | 69 | 14
4 | Cc1c(Cc2c(C(=O)N3C[C@@H](C)N[C@@H](C)C3)nc3ncc(N4CCOCC4)cn23)cccc1C(F)(F)F [Compound 23] | ~219 | 130 | 8.7 | > 30.2 | > 30.2 | > 30.2 | 1480 | 389
5 | Cc1c(Cc2c(CN3C[C@@H](C)N[C@@H](C)C3)nc3ncc(N4CCOCC4)cn23)cccc1C(F)(F)F [Compound 19] | 186 | 263 | 4.2 | 16.6 | > 30.2 | > 30.2 | 1230 | 380
6 | Cc1nc2c(C(N)=O)nc(C3=CCOCC3)cn2c1Cc1cccc(C(F)(F)F)c1C [Compound 5] | ~65 | 257 | 4.7 | 1.82 | 12.3 | 6.31 | 891 | ~87
7 | OCc1nc2ncc(N3CCOCC3)cn2c1Cc1cccc(F)c1C1CCNCC1 [Compound 49] | > 513 | 224 | 15 | 2.57 | > 30.2 | 15.8 | 2240 | > 513
8 | CCOC(=O)Cc1nc2cnc(N3CCOCC3)cn2c1Cc1cccc(C(F)(F)F)c1C [Compound 17] | – | 135 | – | – | – | – | – | –
9 | Cc1c(Cc2c(CN3CCS(=O)(=O)CC3)nc3ncc(N4CCOCC4)cn23)cccc1C(F)(F)F [Compound 22] | ~79 | 225 | 3.1 | 1.44 | > 30.2 | > 30.2 | 631 | 214
10 | CC(=O)N(CCO)Cc1nc2ccc(N3CCOCC3)cn2c1Cc1cccc(C(F)(F)F)c1C [Compound 37] | ~282 | – | 20 | 10.2 | 24 | > 30.2 | 1440 | 282
11 | Cc1c(F)cccc1Cc1c(CO)nc2ncc(N3CCOCC3)cn12 [Compound 25] | 120 | – | 8.9 | 5.89 | 5.62 | 7.24 | 759 | 195
12 | Cc1c(Cc2c(CN3CC4(CCN4)C3)nc3ccc(N4CCOCC4)cn23)cccc1C(F)(F)F [Compound 32] | ~178 | – | 2.2 | 7.24 | 27.5 | 8.51 | 324 | 191
13 | Cc1c(Cc2c(CCO)nc3cnc(N4CCOCC4)cn23)cccc1C(F)(F)F [Compound 13] | > 513 | 142 | 126 | 20.4 | > 30.2 | > 30.2 | 14100 | > 513
14 | Cc1c(Cc2c(CNCCO)nc3cnc(N4CCOCC4)cn23)cccc1C(F)(F)F [Compound 12] | > 513 | – | 68 | > 30.2 | > 30.2 | > 30.2 | 5490 | > 513
15 | Cc1nc2c(CO)cc(C3=CCOCC3)cn2c1Cc1cccc(C(F)(F)F)c1C [Compound 44] | 83 | – | 1.7 | 7.24 | 17.8 | 21.4 | 562 | 135
16 | CN1CCC(c2c(F)cccc2Cc2c(CO)nc3ncc(N4CCOCC4)cn23)CC1 [Compound 48] | > 513 | 222 | 49 | 9.55 | > 30.2 | 12.9 | 4790 | > 513
17 | Cc1c(Cc2c(CNCCCO)nc3ccc(N4CCOCC4)cn23)cccc1C(F)(F)F [Compound 35] | 89 | – | 5.8 | 22.4 | 21.9 | > 30.2 | 575 | 74
18 | Cc1nc2c(-c3c[nH]cn3)nc(C3=CCOCC3)cn2c1Cc1cccc(C(F)(F)F)c1C [Compound 6] | 59 | 197 | 5.5 | 0.343 | 2.17 | 4.7 | 682 | 185
19 | Cc1c(Cc2c(CN3CCC4(CCCS4(=O)=O)C3)nc3ncc(N4CCOCC4)cn23)cccc1C(F)(F)F (centres unmarked) [Compound 26] | 71 | – | 6.8 | 4.17 | > 30.2 | > 30.2 | 697 | 479
20 | Cc1c(Cc2c(CN3CCC(CO)CC3)nc3cnc(N4CCOCC4)cn23)cccc1C(F)(F)F [Compound 10] | > 513 | 198 | 41 | > 30.2 | > 30.2 | > 30.2 | 4270 | > 513
